Measurements reported in patent publication US11433055B2, “Chromane monobactam compounds for the treatment of bacterial infections” (priority 2017, dated 2022).
Where a name gives a salt, the structure may show the parent alone. Read-outs that look alike come from different tables or passages of the source.

Legend:
Type in all cases: cell-based
Settings in all cases: lowest concentration inhibiting 95% of bacterial growth, in the presence of β lactamase inhibitor (BLi, Relebactam), 22 hours, 35±2° C., OD600
[1] = tested on: Pseudomonas aeruginosa expressing AmpC (CL5701)
Method: (§1) Antibiotic Activity: Determination of Growth Inhibitory Concentration
(§2) The concentrations of compounds required to inhibit the growth of various strains of bacteria were determined in an assay that assessed bacterial growth by measuring optical density at 600 nm (OD600). The bacterial strains tested included the clinical strains Escherichia coli expressing NDM-1 (CLB30016), Klebsiella pneumoniae expressing KPC-1 (CL6569), Acinetobacter baumannii expressing TEM-1, AmpC, and Oxa-24/40 (CL6188) and Pseudomonas aeruginosa expressing AmpC (CL5701). All compounds were tested in the presence of a β lactamase inhibitor (BLi, Relebactam) in 384-well microplates. The clinical strains were stored as frozen single use stocks, thawed and diluted into 1.1× cation-adjusted Mueller-Hinton II broth to achieve approximately 2×10^5 CFU/mL. Test compounds were dissolved in DMSO and diluted 1:50 in the assay, resulting in a final concentration range of 100 μM to 0.098 μM. On the day of the assay, 1 μL of test compound was added to the plate followed by 4 μL of 50 μg/mL BLi in MOPS buffer and 45 μL of diluted bacteria. Plates were centrifuged at 1000 rpm for 30 seconds, shaken at approximately 800 rpm for 1 minute, and incubated at 35±2° C. for 22 hours. The concentration of BLi used in the assay was […]. At the end of the incubation, absorbance at 600 nm was determined using a spectrophotometer. Inhibition was quantitated by identifying the lowest concentration of test compound that was required to inhibit 95% of the growth of the bacteria. The results for Examples 1-39 are reported in Table I, expressed as the concentration of compound that inhibited 95% of bacterial growth (Minimum Inhibitory Threshold Concentration; MITC95).

[2] = tested on: Escherichia coli expressing NDM-1 (CLB30016)
Method: as §1, §2

[3] = tested on: Acinetobacter baumannii expressing TEM-1, AmpC, and Oxa-24/40 (CL6188)
Method: as §1, §2

[4] = tested on: Klebsiella pneumoniae expressing KPC-1 (CL6569)
Method: as §1, §2

Compound | PA_CL5701 MITC95 [1] [µM] | EC_CLB30016 MITC95 [2] [µM] | AB_CL6188 MITC95 [3] [µM] | KP_CL6569 MITC95 [4] [µM] | PA_CL5701 MITC95 ([1]; sulfate formate) [µM] | EC_CLB30016 MITC95 ([2]; sulfate formate) [µM] | AB_CL6188 MITC95 ([3]; sulfate formate) [µM] | KP_CL6569 MITC95 ([4]; sulfate formate) [µM]
CC1(C)[C@H](NC(=O)/C(=N\OCC2CCc3cc(C(=N)NCCN)ccc3O2)c2csc(N)n2)C(=O)N1OS(=O)(=O)O (stereo partly drawn) [Example 13, (3S)-3-((Z)-2-(((6-(N-(2-aminoethyl)carbamimidoyl)chroman-2-yl)methoxy)imino)-2-(2-aminothiazol-4-yl)acetamido)-2,2-dimethyl-4-oxoazetidin-1-yl hydrogen sulfate] | 12.5 | 12.5 | 25 | 0.7813 |  |  |  | 
CC1(C)[C@H](NC(=O)/C(=N\O[C@](C)(C(=O)O)[C@H]2CCc3cc(C4CNC(NCCN)=N4)ccc3O2)c2csc(N)n2)C(=O)N1OS(=O)(=O)O (single isomer, unassigned) [Example 26] | 50 | 100 | 12.5 | 1.563 |  |  |  | 
C[n+]1cc(-c2ccc3c(c2)CC[C@@H](CO/N=C(\C(=O)N[C@@H]2C(=O)N(OS(=O)(=O)[O-])C2(C)C)c2csc(N)n2)O3)cn1CCCN [Example 10, (S)-3-((Z)-2-((((S)-6-(1-(3-aminopropyl)-2-methyl-1H-pyrazol-2-ium-4-yl)chroman-2-yl)methoxy)imino)-2-(2-aminothiazol-4-yl)acetamido)-2,2-dimethyl-4-oxoazetidin-1-yl sulfate] | 6.25 | 6.25 | 12.5 | 0.3906 |  |  |  | 
CC1(C)[C@H](NC(=O)/C(=N\O[C@](C)(C(=O)O)[C@H]2CCc3cc(-c4cn(C[C@@H](O)CN)[n+](C[C@@H]5CCNC5)c4)ccc3O2)c2csc(N)n2)C(=O)N1OS(=O)(=O)O.O=C([O-])C(F)(F)F [Example 40, Mono((S)-3-((Z)-2-(((S)-1-((R)-6-(1-((S)-3-amino-2-hydroxypropyl)-2-((R)-pyrrolidin-3-ylmethyl)-1H-pyrazol-2-ium-4-yl)chroman-2-yl)-1-carboxyethoxy)imino)-2-(2-aminothiazol-4-yl)acetamido)-2,2-dimethyl-4-oxoazetidin-1-yl sulfate) mono (2,2,2-trifluoroacetate)] | 0.78 | >50 | 1.56 | 0.1 |  |  |  | 
C[n+]1cc(-c2ccc3c(c2)CC[C@H]([C@](C)(O/N=C(\C(=O)N[C@@H]2C(=O)N(OS(=O)(=O)[O-])C2(C)C)c2csc(N)n2)C(=O)O)O3)cn1C[C@H](O)CN [Example 7, (S)-3-((Z)-2-(((S)-1-((R)-6-(1-((R)-3-amino-2-hydroxypropyl)-2-methyl-1H-pyrazol-2-ium-4-yl)chroman-2-yl)-1-carboxyethoxy)imino)-2-(2-aminothiazol-4-yl)acetamido)-2,2-dimethyl-4-oxoazetidin-1-yl sulfate] | 12.5 | 25 | 25 | 1.563 |  |  |  | 
CC1(C)[C@H](NC(=O)/C(=N\O[C@](C)(C(=O)O)[C@H]2CCc3cc(-c4cn(C[C@@H](O)CN)[n+](C[C@H]5CCNC5)c4)ccc3O2)c2csc(N)n2)C(=O)N1OS(=O)(=O)[O-] [Example 41, mono((S)-3-((Z)-2-(((S)-1-((R)-6-(1-((S)-3-amino-2-hydroxypropyl)-2-(((S)-pyrrolidin-1-ium-3-yl)methyl)-1H-pyrazol-2-ium-4-yl)chroman-2-yl)-1-carboxyethoxy)imino)-2-(2-aminothiazol-4-yl)acetamido)-2,2-dimethyl-4-oxoazetidin-1-yl sulfate) mono (2,2,2-trifluoroacetate)] | 0.78 | >50 | 1.56 | 0.1 |  |  |  | 
C[n+]1cc(-c2ccc3c(c2)CC[C@H]([C@](C)(O/N=C(\C(=O)N[C@@H]2C(=O)N(OS(=O)(=O)[O-])C2(C)C)c2csc(N)n2)C(=O)O)O3)cnc1NC[C@H](O)CN.O=CO [Example 17, (S)-3-((Z)-2-(2-aminothiazol-4-yl)-2-(((S)-1-((R)-6-(2-(((R)-3-ammonio-2-hydroxy-propyl)amino)-1-methyl-pyrimidin-1-ium-5-yl)chroman-2-yl)-1-carboxy-ethoxy)imino)acetamido)-2,2-dimethyl-4-oxoazetidin-1-yl sulfate formate] | 6.25 | 6.25 | 12.5 | 0.3906 |  |  |  | 
C[n+]1cc(-c2ccc3c(c2)CC[C@@H](CO/N=C(\C(=O)N[C@@H]2C(=O)N(OS(=O)(=O)[O-])C2(C)C)c2csc(N)n2)O3)ccc1NCCN [Example 36, mono((R)-3-((Z)-2-(2-aminothiazol-3-ium-4-yl)-2-((((S)-6-(6-((2-ammonioethyl)amino)-1-methyl-pyridin-1-ium-3-yl)chroman-2-yl)methoxy)imino)acetamido)-2,2-dimethyl-4-oxoazetidin-1-yl sulfate) mono(2,2,2-trifluoroacetate)] | 6.25 | 12.5 | 3.125 | 0.7813 |  |  |  | 
(S)-3-((Z)-2-(((S)-1-((R)-6-(1-(3-Aminopropyl)-2-(azetidin-3-ylmethyl)-1H-pyrazol-2-ium-4-yl)chroman-2-yl)-1-carboxyethoxy)imino)-2-(2-aminothiazol-4-yl)acetamido)-2,2-dimethyl-4-oxoazetidin-1-yl Sulfate [Example 3] | 6.25 | 3.13 | 6.25 | 0.39 |  |  |  | 
CC1(C)[C@H](NC(=O)/C(=N\O[C@](C)(C(=O)O)[C@H]2CCc3cc(-c4cn(CCCN)c(=N)n4C[C@H](O)CO)ccc3O2)c2csc(N)n2)C(=O)N1OS(=O)(=O)O [Example 9, (S)-3-((Z)-2-(((S)-1-((R)-6-(1-(3-aminopropyl)-3-((S)-2,3-dihydroxypropyl)-2-imino-2,3-dihydro-1H-imidazol-4-yl)chroman-2-yl)-1-carboxyethoxy)imino)-2-(2-aminothiazol-4-yl)acetamido)-2,2-dimethyl-4-oxoazetidin-1-yl sulfate] | 6.25 | 12.5 | 12.5 | 0.3906 |  |  |  | 
CC1(C)[C@H](NC(=O)/C(=N\O[C@](C)(C(=O)O)[C@H]2CCc3cc(C4=CN=C(NCCCN)NC4)ccc3O2)c2csc(N)n2)C(=O)N1OS(=O)(=O)O [Example 32, 2-((3-aminopropyl)amino)-5-((R)-2-((S)-1-((((Z)-1-(2-aminothiazol-4-yl)-2-(((S)-2,2-dimethyl-4-oxo-1-(sulfooxy)azetidin-3-yl)amino)-2-oxoethylidene)amino)oxy)-1-carboxyethyl)chroman-6-yl)-3,4-dihydropyrimidin-1-ium Formate] | 3.125 | 3.125 | 3.125 | 0.1953 |  |  |  | 
C[n+]1cc(-c2ccc3c(c2)CC[C@H]([C@](C)(O/N=C(\C(=O)N[C@@H]2C(=O)N(OS(=O)(=O)[O-])C2(C)C)c2csc(N)n2)C(=O)O)O3)ccc1NC(CN)CN.O=CO [Example 23A, (3S)-3-((Z)-2-(((1S)-1-((2R)-6-(6-((1-amino-3-ammoniopropan-2-yl)amino)-1-methylpyridin-1-ium-3-yl)chroman-2-yl)-1-carboxyethoxy)imino)-2-(2-aminothiazol-4-yl)acetamido)-2,2-dimethyl-4-oxoazetidin-1-yl sulfate formate] |  |  |  |  | 3.125 | 12.5 | 6.25 | 0.3906
C[n+]1cc(-c2ccc3c(c2)CC[C@H]([C@](C)(O/N=C(\C(=O)N[C@@H]2C(=O)N(OS(=O)(=O)[O-])C2(C)C)c2csc(N)n2)C(=O)O)O3)cnc1NC[C@@H](O)CN.O=CO [Example 18, (S)-3-((Z)-2-(2-aminothiazol-4-yl)-2-(((S)-1-((R)-6-(2-(((S)-3-ammonio-2-hydroxy-propyl)amino)-1-methylpyrimidin-1-ium-5-yl)chroman-2-yl)-1-carboxy-ethoxy)imino)acetamido)-2,2-dimethyl-4-oxoazetidin-1-yl sulfate formate] | 6.25 | 6.25 | 3.125 | 0.3906 |  |  |  | 
